The source of these data is US12215132B2, “Methods, compositions and uses thereof for reversing sarcopenia” (The Trustees of Columbia University in the City of New York, priority 2020, dated 2025).

For series [1], the system named is dexamethasone-treated mice. Here is the method: It was also further examined whether an osteocalcin treatment might preserve muscle function and/or muscle mass in a clinically relevant mouse model of sarcopenia.
In another recognized model of sarcopenia, the efficacy of osteocalcin has been tested. Specifically, dexamethasone delivered by pumps ([…]) for 28 days has been used in mice. Another group of mice received Dexamethasone plus osteocalcin also delivered by pumps.
FIG. 9A and FIG. 9B show exemplary graphs pf exemplary modeling sarcopenia in mice.

Series [2] relates to Liver Factor 1. The experiment in a line: Liver Factor 1 production during exercise. In kind it is in vivo. The text has this:
OCN signaling in the liver is required for exercise capacity (see FIG. 6). OCN enhances Liver Factor 1 production during exercise (see FIG. 7). Liver Factor 1 mediates OCN regulation of exercise capacity (see FIG. 8).

Series [3] relates to animal models. As to conditions: in vivo.
Series [4] deals with young and 12 to 15 month-old mice. Particulars: data of WO 2016/081728, cited from earlier work.
The mark [5] stands for this setting: dexamethasone-treated mice, co-treatment with test substance.
Setting [6] is: one-month chronic infusion of dexamethasone, mice.

“Also recorded” adds a separate entry of the source. Read-outs that look alike come from different tables or passages of the source.

`N#Cc1ccc(N2CCC[C@@H]2[C@@H](O)C(F)(F)F)cc1C(F)(F)F` [VK5211, reference compound]: in series [1] (setting [5]), the muscle mass entry was “fully restored muscle mass to normal levels” and the “running capacity / exercise capacity” value is reported as “modest effect”.
Consider `C[C@@H]1C[C@H]2[C@@H]3CCC4=CC(=O)C=C[C@]4(C)[C@@]3(F)[C@@H](O)C[C@]2(C)[C@@]1(O)C(=O)CO` [dexamethasone, reference compound], for which, in series [1] (mouse, in vivo), the “ability to run on a treadmill” value was “decreased” and the muscle mass entry is recorded as “decreased”. In addition, in series [1] (setting [6]), the “decrease of gastrocnemius muscle mass” value stood at 30% and the “reduction of running capacity” value is reported as 50%.
On to “osteocalcin: Osteocalcin, a bone-derived hormone; small (46-50 amino acid residues) bone specific protein (YLYQWLGAPVPYPDPLEPRREVCELNPDCDELADHIGFQEAYRR; listed as Homo sapiens)”, for which, in series [1] (Dex-induced sarcopenia), the IL-6 result is given as “favors IL-6”. Moreover, the “muscle function versus muscle mass; comparison with VK5211” value in series [1] (Dex-induced sarcopenia) is recorded as “outperforms”; in series [1] (Dex-induced sarcopenia, listed as OCN) it was “mainly targets muscle function”. Further, in series [1] (dexamethasone-treated mice, co-treatment with test substance, listed as OCN), the muscle mass entry is reported as “marginal effect”. The off-target effects result in series [1] (mouse, in vivo) was “no overt off-target effects”. Besides, the “deleterious effect of dexamethasone on muscle function” value in series [1] (osteocalcin given to mice that had already received dexamethasone for two weeks) is reported as “partially revert”. In series [2], the “Liver Factor 1 production” value is “enhances”. Further, in series [3], the negative side-effects result was “safe with no recorded negative side-effects”. Besides, the exercise capacity entry is on record as “confers to 15 months-old mice exercise capacity of 3 month-old mice; also recorded: confers to 12 to 15 month-old mice the exercise capacity of 3 month-old mice” in series [4] (12 to 15 month-old mice) and “increases the exercise capacity” in series [4] (young mice).
